Earlier results, collected in patent publication US6469171B1, “Syntheses of a variety of lamellarin compounds and analogues” (The Australian National University, priority 1998, dated 2002).

Columns and labels:
[1] = system: fertilised sea urchin; settings: fertilised sea urchin assay
[2] = system: P388 cell line; settings: P388 cell line in culture
[3] = system: A549 cell line; settings: A549 cell line in culture
[4] = system: lung cancer cell lines; settings: by acting as a Type IV microtubule poison

Compound	inhibition of cell division [1]	cytotoxicity [2]	cytotoxicity [3]	activity in lung cancer cell lines [4]
COc1cc(-c2c3n(c4c(=O)oc5cc(O)c(OC)cc5c24)CCc2c-3cc(OC)c(OC)c2OC)ccc1O [Lamellarin C]	inhibition of cell division	–	–	–
COc1cc(-c2c3c4cc(OC)c(O)cc4oc(=O)c3n3ccc4cc(O)c(OC)cc4c23)ccc1O [Lamellarin D]	inhibition of cell division	–	–	–
COc1ccc(-c2c3n(c4c(=O)oc5cc(O)c(OC)cc5c24)CCc2cc(O)c(OC)cc2-3)cc1O [Lamellarin L]	–	significant cytoxicity	significant cytoxicity	–
COc1ccc(-c2c3c4cc(OC)c(O)cc4oc(=O)c3n3ccc4cc(O)c(OC)cc4c23)cc1O [Lamellarin N]	–	–	–	activity
Lamellarin I	–	significant cytoxicity	significant cytoxicity	–
Lamellarin K	–	significant cytoxicity	significant cytoxicity	–
